# What was measured:
# ALK [L1196M] = ALK [L1196M] (Homo sapiens, UniProt Q9UM73, L1196M); experiment: Kinase inhibition assay, ALK [L1196M]; assay type: biochemical
# Description: (§1) Compound preparation: The test compounds were dissolved in DMSO to make 20 mM stock solutions. The compounds were diluted in DMSO to 0.1 mM (a dilution with 100 times the final concentration) before use, and a 3-fold series gradient dilution with 11 concentrations was made. Dilutions with 4 times of the final concentration were prepared by diluting with buffer when dosing.
# (§2) Kinase assay: after preparing the buffer solution, the enzyme was mixed with pre-diluted compounds with different concentrations, and placed at room temperature for 30 minutes in duplicate. The corresponding substrate and ATP were added thereto and reacted at room temperature for 60 minutes (both a negative and a positive control were set). After the reaction, antibody was added for detection, and after incubation at room temperature for 60 minutes, Evnvision detection was carried out, and data was collected. Data was analyzed and fit according to XLfit5 software. IC50 was calculated by the following formula: (IC50=[(ABS test-ABS begin)/(ABS control-ABS begin)]×100).
# ALK [WT] = ALK [WT] (Homo sapiens, UniProt Q9UM73); experiment: Kinase inhibition assay, ALK [WT]; assay type: biochemical
# ALK [WT], sequence (Q9UM73 19-1620): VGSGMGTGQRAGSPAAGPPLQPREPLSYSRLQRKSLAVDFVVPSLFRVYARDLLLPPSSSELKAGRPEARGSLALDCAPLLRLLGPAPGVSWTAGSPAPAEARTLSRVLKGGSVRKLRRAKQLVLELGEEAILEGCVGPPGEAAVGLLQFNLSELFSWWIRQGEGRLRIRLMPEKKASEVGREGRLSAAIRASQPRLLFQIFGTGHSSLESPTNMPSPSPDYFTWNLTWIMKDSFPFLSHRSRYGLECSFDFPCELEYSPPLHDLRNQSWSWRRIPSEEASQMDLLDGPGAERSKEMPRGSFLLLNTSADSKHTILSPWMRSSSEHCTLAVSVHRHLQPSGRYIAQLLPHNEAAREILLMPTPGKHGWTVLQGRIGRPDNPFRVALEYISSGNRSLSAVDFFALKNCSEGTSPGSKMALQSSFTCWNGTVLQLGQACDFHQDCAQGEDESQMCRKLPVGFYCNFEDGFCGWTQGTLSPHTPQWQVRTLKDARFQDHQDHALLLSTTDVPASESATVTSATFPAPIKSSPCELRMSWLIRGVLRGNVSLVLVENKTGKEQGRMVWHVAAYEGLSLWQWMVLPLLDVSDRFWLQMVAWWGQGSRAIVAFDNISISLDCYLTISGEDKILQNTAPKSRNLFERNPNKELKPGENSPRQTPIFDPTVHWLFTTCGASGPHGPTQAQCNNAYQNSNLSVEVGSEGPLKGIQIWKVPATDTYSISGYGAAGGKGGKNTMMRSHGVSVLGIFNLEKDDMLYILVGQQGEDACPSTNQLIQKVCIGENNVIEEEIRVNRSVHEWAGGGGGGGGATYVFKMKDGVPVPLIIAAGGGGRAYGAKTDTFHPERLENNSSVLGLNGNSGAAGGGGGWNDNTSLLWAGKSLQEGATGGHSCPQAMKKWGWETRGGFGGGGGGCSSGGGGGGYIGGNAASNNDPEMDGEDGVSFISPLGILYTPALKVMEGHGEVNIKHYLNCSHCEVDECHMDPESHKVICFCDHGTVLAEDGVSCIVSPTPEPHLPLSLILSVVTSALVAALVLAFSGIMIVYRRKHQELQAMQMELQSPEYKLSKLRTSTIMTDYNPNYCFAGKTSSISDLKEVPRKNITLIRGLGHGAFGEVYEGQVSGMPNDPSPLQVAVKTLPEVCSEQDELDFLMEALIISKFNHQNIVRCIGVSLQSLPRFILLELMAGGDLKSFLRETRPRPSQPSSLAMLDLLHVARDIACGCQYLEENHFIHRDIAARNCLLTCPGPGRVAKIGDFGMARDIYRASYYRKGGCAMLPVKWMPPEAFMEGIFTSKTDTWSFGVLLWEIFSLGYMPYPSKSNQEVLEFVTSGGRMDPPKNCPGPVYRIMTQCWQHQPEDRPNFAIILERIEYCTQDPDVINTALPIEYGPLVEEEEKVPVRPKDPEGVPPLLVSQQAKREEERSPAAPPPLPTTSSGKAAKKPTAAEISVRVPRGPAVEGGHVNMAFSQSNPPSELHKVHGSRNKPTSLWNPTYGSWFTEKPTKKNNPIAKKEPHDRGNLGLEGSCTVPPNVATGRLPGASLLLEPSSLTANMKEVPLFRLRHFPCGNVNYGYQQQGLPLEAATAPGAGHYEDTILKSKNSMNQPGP
# Description: as §1, §2
# Ba/F3 parental = experiment: Cytotoxicity test (CellTiter-Glo), Ba/F3 parental; assay type: cell-based; settings: Mus musculus, BaF3, 72 hours
# Description: (§3) The in vitro anti-proliferative activity of the compounds of the present disclosure against three types of cells that are cultured in vitro was tested by CellTiter-Glo method.
# (§4) Cell lines: Ba/F3 parental; Ba/F3 [EML4-ALK] (From WuXi PharmaTech) and Ba/F3 [EML4-ALK L1196M] (From WuXi PharmaTech); wherein, Ba/F3 parental was cultured in RPMI1640 medium containing 10 ng/ml IL-3, […], 100 U/ml penicillin, and 100 μg/ml streptomycin, Ba/F3 [EML4-ALK] and Ba/F3 [EML4-ALK L1196M] were cultured in RPMI1640 medium containing 10% fetal bovine serum, 100 U/ml penicillin, and 100 μg/ml streptomycin.
# (§5) Reagents and materials: RPMI-1640 (GIBCO, Cat. No. A10491-01); fetal bovine serum (GIBCO, Cat. No. 10099141); 0.25% trypsin-EDTA (GIBCO, Cat. No. 25200); penicillin-streptomycin, liquid (GIBCO, Cat. No. 15140-122); DMSO (Sigma, Cat. No. D2650); CellTiter-Glo Test Kit (Promega, Cat. No. G7572), and 96-well plate (Corning, Cat. No. 3365).
# (§6) Specific experimental procedures: • 1. The test compounds were dissolved in DMSO to make stock solutions and subjected to a series gradient dilution to give solutions with 10-fold working concentration. • 2. The cells in the logarithmic growth phase were diluted with the culture solution to adjust to the specific cell concentration, 90 μl of cell suspension was added to the 96-well plate to make the cell density reach the specified concentration. The plate was incubated in a incubator at 37° C., containing 5% carbon dioxide gas overnight. • 3. 10 μl drug solutions were added to each well of the 96-well plate inoculated with cells. 10 concentrations of the compounds were tested starting from the highest concentration of 20 μM with a 3-fold series gradient dilution in duplicate. • 4. After continuously cultured for 72 hours, the cells were detected by CellTiter-Glo for the cell viability. The dose-effect curve was made using GraphPad Prism software and IC50 was calculated.
# Ba/F3 [EML4-ALK] [1] = biological target: T1, Ba/F3 [EML4-ALK] (Homo sapiens, UniProt Q9UM73); experiment: Cytotoxicity test (CellTiter-Glo), Ba/F3 [EML4-ALK]; assay type: cell-based; settings: 72 hours, CellTiter-Glo; read-out: IC50(nM) ALK (Ba/F3)
# T1 construct: IC50(nM) ALK (Ba/F3); other: 72 hours, CellTiter-Glo; Ba/F3 [EML4-ALK]; fused on or other part: Q9HC35 (Echinoderm microtubule-associated protein-like 4)
# T1 sequence (Q9UM73 whole entry, change not shown, the tested form may be a part): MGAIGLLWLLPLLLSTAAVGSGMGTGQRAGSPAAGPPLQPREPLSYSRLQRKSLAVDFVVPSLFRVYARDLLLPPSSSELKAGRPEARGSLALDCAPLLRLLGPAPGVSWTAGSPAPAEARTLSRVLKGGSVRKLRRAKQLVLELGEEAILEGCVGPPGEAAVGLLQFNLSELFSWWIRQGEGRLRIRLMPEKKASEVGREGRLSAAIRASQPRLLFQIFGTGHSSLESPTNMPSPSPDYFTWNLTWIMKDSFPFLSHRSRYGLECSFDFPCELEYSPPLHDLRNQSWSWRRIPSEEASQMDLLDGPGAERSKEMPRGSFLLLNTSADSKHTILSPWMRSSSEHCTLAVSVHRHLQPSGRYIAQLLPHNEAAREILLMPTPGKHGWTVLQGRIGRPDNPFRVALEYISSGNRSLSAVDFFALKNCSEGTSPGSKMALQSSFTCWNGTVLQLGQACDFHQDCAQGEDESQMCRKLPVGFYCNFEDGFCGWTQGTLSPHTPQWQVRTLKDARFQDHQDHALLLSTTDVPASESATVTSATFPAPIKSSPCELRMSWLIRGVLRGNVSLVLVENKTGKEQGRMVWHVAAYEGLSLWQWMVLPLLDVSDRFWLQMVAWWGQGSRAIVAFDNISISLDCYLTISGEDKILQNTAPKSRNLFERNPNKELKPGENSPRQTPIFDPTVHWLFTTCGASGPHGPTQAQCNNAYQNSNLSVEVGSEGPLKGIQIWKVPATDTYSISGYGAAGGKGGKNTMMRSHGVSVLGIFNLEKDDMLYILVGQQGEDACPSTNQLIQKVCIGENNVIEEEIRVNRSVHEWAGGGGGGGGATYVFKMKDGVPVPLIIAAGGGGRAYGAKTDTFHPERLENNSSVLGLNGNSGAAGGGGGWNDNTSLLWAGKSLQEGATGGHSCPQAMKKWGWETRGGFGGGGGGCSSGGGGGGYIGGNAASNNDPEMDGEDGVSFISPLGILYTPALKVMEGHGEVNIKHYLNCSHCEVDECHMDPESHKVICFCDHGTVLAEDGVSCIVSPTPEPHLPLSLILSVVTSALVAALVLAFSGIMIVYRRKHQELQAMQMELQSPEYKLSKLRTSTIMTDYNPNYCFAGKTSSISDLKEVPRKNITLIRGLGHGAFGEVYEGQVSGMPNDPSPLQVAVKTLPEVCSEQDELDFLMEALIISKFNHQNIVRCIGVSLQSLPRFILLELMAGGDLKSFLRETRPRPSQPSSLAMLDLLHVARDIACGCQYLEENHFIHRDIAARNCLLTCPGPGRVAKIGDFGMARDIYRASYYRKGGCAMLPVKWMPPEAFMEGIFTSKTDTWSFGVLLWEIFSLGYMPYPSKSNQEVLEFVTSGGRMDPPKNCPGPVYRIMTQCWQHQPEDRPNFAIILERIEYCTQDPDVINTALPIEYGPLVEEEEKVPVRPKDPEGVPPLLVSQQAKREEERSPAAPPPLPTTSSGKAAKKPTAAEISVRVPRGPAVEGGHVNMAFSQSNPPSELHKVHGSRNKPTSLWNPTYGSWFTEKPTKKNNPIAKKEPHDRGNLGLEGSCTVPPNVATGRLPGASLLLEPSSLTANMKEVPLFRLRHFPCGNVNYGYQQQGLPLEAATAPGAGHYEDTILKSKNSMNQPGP
# Description: as §3, §4, §5, §6
# Ba/F3 [EML4-ALK] [2] = experiment: as above; assay type: cell-based; settings: ratio of Ba/F3 IC50 values
# Description: as §3, §4, §5, §6
# Ba/F3 [EML4-ALK L1196M] [3] = experiment: Cytotoxicity test (CellTiter-Glo), Ba/F3 [EML4-ALK L1196M]; assay type: cell-based; settings: ratio of Ba/F3 IC50 values
# Description: as §3, §4, §5, §6
# Ba/F3 [EML4-ALK L1196M] [4] = biological target: T2, Ba/F3 [EML4-ALK L1196M] (Homo sapiens, UniProt Q9UM73, L1196M, cells depend on it); experiment: as above; assay type: cell-based; settings: 72 hours, CellTiter-Glo; read-out: IC50(nM) ALK[L1196M] (Ba/F3)
# T2 construct: IC50(nM) ALK[L1196M]; (Ba/F3); other: 72 hours, CellTiter-Glo; Ba/F3 [EML4-ALK L1196M]; fused on or other part: Q9HC35 (Echinoderm microtubule-associated protein-like 4)
# T2 sequence (Q9UM73 whole entry L1196M, the tested form may be a part): as the sequence (Q9UM73 whole entry, change not shown, the tested form may be a part) above, with L1196M counted along it
# Description: as §3, §4, §5, §6
# ALK [L1196M], sequence (Q9UM73 19-1620 L1196M): as the sequence (Q9UM73 19-1620) above, with L1178M counted along it
SMILES,IC50 (ALK [L1196M]),IC50 (ALK [WT]),IC50 (Ba/F3 parental),GI50 (Ba/F3 [EML4-ALK] [1]),Selectivity parental/ALK (Ba/F3 [EML4-ALK] [2]),Selectivity parental/ALK[L1196M] (Ba/F3 [EML4-ALK L1196M] [3]),GI50 (Ba/F3 [EML4-ALK L1196M] [4])
"COc1nc(N2CCC(N(C)C)CC2)ccc1Nc1nc(Nc2ccccc2P(C)(C)=O)c2cc[nH]c2n1 [Example 13, (2-((2-((6-(4-(dimethylamino)piperidin-1-yl)-2-methoxypyridin-3-yl)amino)-7H-pyrrolo [2,3-d]pyrimidin-4-yl)amino)phenyl)dimethylphosphine oxide]",≤ 5 nM,5 to 10 nM,400 to 1000 nM,≤ 50 nM,0~50,0~50,50 to 100 nM
"CN(C)C1CCN(c2ccc(Nc3ncc(Cl)c(Nc4ccccc4P(C)(C)=O)n3)c(OCC(F)(F)F)n2)CC1 [Example 9, (2-((5-chloro-2-((6-(4-(dimethyaminono)piperidin-1-yl)-2-(2,2,2-trifluoroethoxy)pyridin-3-yl)amino)pyrimidin-4-yl)amino)phenyl)dimethylphosphine oxide]",5 to 10 nM,≤ 5 nM,≥ 1000 nM,≤ 50 nM,200~400,50~100,50 to 100 nM
"COc1nc(N2CCC(N3CCN(C)CC3)CC2)ccc1Nc1nc(Nc2ccccc2P(C)(C)=O)c2cc[nH]c2n1 [Example 16, (2-((2-((2-methoxy-6-(4-(4-methylpiperazin-1-yl)piperidin-1-yl)pyridin-3-yl)amino)-7H-pyrrolo[2,3-d]pyrimidin-4-yl)amino)phenyl)dimethylphosphine oxide]",5 to 10 nM,≤ 5 nM,400 to 1000 nM,≤ 50 nM,50~100,0~50,50 to 100 nM
"COc1nc(N2CCN(C)CC2)ccc1Nc1nc(Nc2ccccc2P(C)(C)=O)c2cc[nH]c2n1 [Example 14, (2-((2-((2-methoxy-6-(4-methylpiperazin-1-yl)pyridin-3-yl)amino)-7H-pyrrolo[2,3-d]pyrimidin-4-yl)amino)phenyl)dimethylphosphine oxide]",≤ 5 nM,≤ 5 nM,400 to 1000 nM,≤ 50 nM,50~100,0~50,≤ 50 nM
"COc1nc(N2CCC(N(C)C)CC2)ccc1Nc1ncc(Cl)c(Nc2ccccc2P(C)(C)=O)n1 [Example 1, (2-((5-chloro-2-((6-(4-(dimethylamino)piperidin-1-yl)-2-methoxypyridin-3-)amino)pyrimidin-4-yl)amino)phenyl)dimethylphosphine oxide]",5 to 10 nM,≤ 5 nM,≥ 1000 nM,≤ 50 nM,50~100,0~50,50 to 100 nM
"CP(C)(=O)c1ccccc1Nc1nc(Nc2ccc(CCN)nc2OCC(F)(F)F)ncc1Cl [Example 17, (2-((2-((6-(2-aminoethyl)-2-(2,2,2-trifluoroethoxy)pyridin-3-yl)amino)-5-chloropyrimidin-4-yl)amino)phenyl)dimethylphosphine oxide]",50 to 100 nM,10 to 50 nM,≥ 1000 nM,100 to 400 nM,50~100,0~50,400 to 1000 nM
"COc1nc(N2CCN(C)CC2)ccc1Nc1ncc(Cl)c(Nc2ccccc2P(C)(C)=O)n1 [Example 2, (2-((5-chloro-2-((2-methoxy-6-(4-methylpiperazin-1-yl)pyridin-3-yl)amino)pyrimidin-4-yl)amino)phenyl)dimethylphosphine oxide]",≤ 5 nM,≤ 5 nM,≥ 1000 nM,≤ 50 nM,50~100,0~50,50 to 100 nM
"CC(C)Oc1nc(N2CCN(C)CC2)ccc1Nc1ncc(Cl)c(Nc2ccccc2P(C)(C)=O)n1 [Example 6, (2-((5-chloro-2-((2-isopropoxy-6-(4-methylpiperazin-1-yl)pyridin-3-yl)amino)pyrimidin-4-yl)amino)phenyl)dimethylphosphine oxide]",≤ 5 nM,5 to 10 nM,≥ 1000 nM,≤ 50 nM,200~400,50~100,100 to 400 nM
COc1nc(N(C)CCN(C)C)ccc1Nc1nc(Nc2ccccc2P(C)(C)=O)c2cc[nH]c2n1 [Example 15],≤ 5 nM,5 to 10 nM,≥ 1000 nM,≤ 50 nM,50~100,0~50,50 to 100 nM
"CN1CCN(c2ccc(Nc3ncc(Cl)c(Nc4ccccc4P(C)(C)=O)n3)c(OCC(F)(F)F)n2)CC1 [Example 10, (2-((5-chloro-2-((6-(4-methylpiperazin-1-yl)-2-(2,2,2-trifluoroethoxy)pyridin-3-yl)amino)pyrimidin-4-yl)amino)phenyl)dimethylphosphine oxide]",5 to 10 nM,≤ 5 nM,≥ 1000 nM,≤ 50 nM,100~200,50~100,100 to 400 nM
"COc1nc(N2CCC(N3CCN(C)CC3)CC2)ccc1Nc1ncc(Cl)c(Nc2ccccc2P(C)(C)=O)n1 [Example 4, (2-((5-chloro-2-((2-methoxy-6-(4-(4-methylpiperazin-1-yl)piperidin-1-yl)pyridin-3-yl)amino)pyrimidin-4-yl)amino)phenyl)dimethylphosphine oxide]",5 to 10 nM,5 to 10 nM,≥ 1000 nM,≤ 50 nM,50~100,0~50,50 to 100 nM
